Patent US4224442A, “7-Ureido acetamido substituted cephalosporin antibiotics” (Eli Lilly and Company, priority 1975, dated 1980)
In brackets after ≈: the same amount, converted by molar mass.

Tests used:
[1] = tested on: Escherichia coli; assay: in vivo effective dose in experimental infections in mice; details: ip, E. coli infection in mice
Text: (§1) The in vivo effective dose […] in mg./kg. for representative antibiotics of the formula I has been determined in experimental infections in mice. Table II lists the ED50 dose vs. Streptococcus pyogenes and Escherichia coli infections. In the table, the antibiotics are identified with the R", R', and R1 -R3 terms of Formula I. |Test Compound ED50 (mg/kg × 2) i.p.

[2] = tested on: Streptococcus pyogenes; assay: as above; details: ip, S. pyogenes infection in mice
Text: as §1

[3] = tested on: Aerobacter aerogenes; assay: Gradient Plate in vitro method, MIC; assay type: cell-based; details: Klebsiella aerogenes, read-out: Minimum Inhibitory Concentration
Text: (§2) The antibiotic activity of the cephalosporin compounds of the formula I is illustrated by the data presented in Table I for representative compounds. The values in the table are the minimum inhibitory concentrations (MIC) for the test compounds against the indicated microorganisms. The MIC values were obtained in the Gradient Plate in vitro method for determining antibiotic activity.
(§3) Minimum Inhibitory Concentration (mcg./ml.)

[4] = tested on: Klebsiella pneumoniae; assay: Gradient Plate in vitro method, MIC; assay type: cell-based; details: read-out: Minimum Inhibitory Concentration
Text: as §2, §3

[5] = tested on: Pseudomonas aeruginosa; assay: Gradient Plate in vitro method, MIC; assay type: cell-based; details: read-out: Minimum Inhibitory Concentration
Text: as §2, §3

[6] = tested on: Salmonella heidelberg; assay: Gradient Plate in vitro method, MIC; assay type: cell-based; details: Salmonella enterica, read-out: Minimum Inhibitory Concentration
Text: as §2, §3

[7] = tested on: Shigella sp.; assay: Gradient Plate in vitro method, MIC; assay type: cell-based; details: read-out: Minimum Inhibitory Concentration
Text: as §2, §3

[8] = tested on: Escherichia coli; assay: Gradient Plate in vitro method, MIC; assay type: cell-based; details: read-out: Minimum Inhibitory Concentration
Text: (§4) The values in the table are the minimum inhibitory concentrations (MIC) for the test compounds against the indicated microorganisms. The MIC values were obtained in the Gradient Plate in vitro method for determining antibiotic activity.

[9] = tested on: Serratia marcescens; assay: Gradient Plate in vitro method, MIC; assay type: cell-based; details: read-out: Minimum Inhibitory Concentration
Text: as §4

[10] = tested on: V32; assay: Gradient Plate in vitro method, MIC; assay type: cell-based, penicillin resistant Staphyloccus; details: V32, penicillin resistant Staphylococcus, read-out: Minimum Inhibitory Concentration
Text: as §2, §3
(§5) ^1 Test organisms V41, V32 and V84 are penicillin resistant
(§6) Staphyloccus, X400 is a methicillin resistant Staphylococcus.

[11] = tested on: V41; assay: Gradient Plate in vitro method, MIC; assay type: cell-based, penicillin resistant Staphyloccus; details: V41, penicillin resistant Staphylococcus, read-out: Minimum Inhibitory Concentration
Text: as §2, §3, §5, §6

[12] = tested on: V84; assay: Gradient Plate in vitro method, MIC; assay type: cell-based, penicillin resistant Staphyloccus; details: V84, penicillin resistant Staphylococcus, read-out: Minimum Inhibitory Concentration
Text: as §2, §3, §5, §6

[13] = tested on: X400; assay: Gradient Plate in vitro method, MIC; assay type: cell-based; details: X400, methicillin resistant Staphylococcus, read-out: Minimum Inhibitory Concentration
Text: as §2, §3, §5, §6

[14] = tested on: Staphylococcus aureus; assay: standard gear agar dilution method, MIC; assay type: cell-based
Text: In the standard gear agar dilution method, the MIC values for the above test compounds A through E against Staphylococcus aureus were as follows: A, 2; B, 1; C, 0.5; D, 2; and E, 0.5 mcg./m1.

`CNC(=O)NC(=O)NC(C(=O)NC1C(=O)N2C(C(=O)O)=C(CSc3nnc(C)s3)CSC12)c1ccc(O)cc1` (stereo not drawn) [Example 14, 7-[α-(3-methylcarbamoyl-1-ureido)-α-(4-hydroxyphenyl)acetamido]-3-(5-methyl-1,3,4-thiadiazole-2-ylthiomethyl)-3-cephem-4-carboxylic acid] was tested, and the ED50 [1] was < 72 mg/kg and the ED50 [2] was 0.7 mg/kg.
Work on `CNC(=O)N(C)C(=O)NC(C(=O)NC1C(=O)N2C(C(=O)O)=C(CSc3nnnn3C)CSC12)c1cccs1` (stereo not drawn) [Test Compound K, 7-[α-(3-methylcarbamoyl-3-methyl-1-ureido)-α-(2-thienyl)acetamido]-3-(1-methyl-1H-tetrazole-5-ylthiomethyl)-3-cephem-4-carboxylic acid] yielded an MIC [3] of 1 µg/mL (≈ 1.72 µM), an MIC [4] of 0.9 µg/mL (≈ 1.55 µM) and an MIC [5] of 21.5 µg/mL (≈ 37 µM). The MIC [6] was 10 µg/mL (≈ 17.2 µM), the MIC [7] was 1 µg/mL (≈ 1.72 µM) and the MIC [8] was 2.5 µg/mL (≈ 4.3 µM). For the same compound, the MIC [9] was 19.5 µg/mL (≈ 33.5 µM), the MIC [10] was 3 µg/mL (≈ 5.16 µM) and the MIC [11] was 3 µg/mL (≈ 5.16 µM). For the same compound, the MIC [12] was 3 µg/mL (≈ 5.16 µM) and the MIC [13] was > 20 µg/mL.
`CNC(=O)NC(=O)NC(C(=O)NC1C(=O)N2C(C(=O)O)=C(CSc3nnnn3C)CSC12)c1cccs1` (stereo not drawn) [Test Compound I, 7-[α-(3-methylcarbamoyl-1-ureido)-α-(2-thienyl)-acetamido]-3-(1-methyl-1H-tetrazole-5-ylthiomethyl)-3-cephem-4-carboxylic acid] showed an MIC [3] of 4.3 µg/mL (≈ 7.58 µM), an MIC [4] of 6.8 µg/mL (≈ 12 µM) and an MIC [5] of 16 µg/mL (≈ 28.2 µM). It also gave an MIC [6] of 4.5 µg/mL (≈ 7.93 µM), an MIC [7] of 3 µg/mL (≈ 5.29 µM) and an MIC [8] of 5.5 µg/mL (≈ 9.69 µM). It also gave an MIC [9] of 35 µg/mL (≈ 61.7 µM), an MIC [10] of 0.7 µg/mL (≈ 1.23 µM) and an MIC [11] of 0.6 µg/mL (≈ 1.06 µM). The MIC [12] was 0.6 µg/mL (≈ 1.06 µM), the MIC [13] was 13 µg/mL (≈ 22.9 µM) and the ED50 [1] was < 72 mg/kg. For the same compound, the ED50 [2] was < 7.2 mg/kg.
`Cn1nnnc1SCC1=C(C(=O)O)N2C(=O)C(NC(=O)C(NC(=O)NC(=O)Nc3ccccc3)c3ccccc3)C2SC1` (stereo not drawn) [Test Compound M, 7-[α-(3-phenylcarbamoyl-1-ureido)-α-phenylacetamido]-3-(1-methyl-1H-tetrazole-5-ylthiomethyl)-3-cephem-4-carboxylic acid] was tested, and the MIC [3] was 15.5 µg/mL (≈ 24.9 µM), the MIC [4] was 0.6 µg/mL (≈ 0.962 µM) and the MIC [5] was 19.5 µg/mL (≈ 31.3 µM). For the same compound, the MIC [6] was 7.8 µg/mL (≈ 12.5 µM), the MIC [7] was 4 µg/mL (≈ 6.41 µM) and the MIC [8] was 10 µg/mL (≈ 16 µM). For the same compound, the MIC [9] was 24 µg/mL (≈ 38.5 µM), the MIC [10] was 0.5 µg/mL (≈ 0.802 µM) and the MIC [11] was 0.6 µg/mL (≈ 0.962 µM). The MIC [12] was 0.5 µg/mL (≈ 0.802 µM) and the MIC [13] was 10 µg/mL (≈ 16 µM).
For `CNC(=O)N(C)C(=O)NC(C(=O)NC1C(=O)N2C(C(=O)O)=C(CSc3nnnn3C)CSC12)c1ccccc1` (stereo not drawn) [Test Compound F, 7-[α-(3-methylcarbamoyl-3-methyl-1-ureido)-α-phenylacetamido]-3-(1-methyl-1H-tetrazole-5-ylthiomethyl)-3-cephem-4-carboxylic acid], the MIC [3] was 3 µg/mL (≈ 5.21 µM), the MIC [4] was 1 µg/mL (≈ 1.74 µM) and the MIC [5] was 22 µg/mL (≈ 38.2 µM). The MIC [6] was 3 µg/mL (≈ 5.21 µM), the MIC [7] was 3 µg/mL (≈ 5.21 µM) and the MIC [8] was 4 µg/mL (≈ 6.95 µM). It also gave an MIC [9] of 22 µg/mL (≈ 38.2 µM), an MIC [10] of 5 µg/mL (≈ 8.69 µM) and an MIC [11] of 5 µg/mL (≈ 8.69 µM). For the same compound, the MIC [12] was 4 µg/mL (≈ 6.95 µM) and the MIC [13] was > 20 µg/mL.
Compound `CNC(=O)N(C)C(=O)NC(C(=O)NC1C(=O)N2C(C(=O)O)=C(COC(C)=O)CSC12)c1ccccc1` (stereo not drawn) [Test Compound C, 7-[α-(3-methylcarbamoyl-3-methyl-1-ureido)-α-phenylacetamido]-3-acetoxymethyl-3-cephem-4-carboxylic acid] has an MIC [3] of 14 µg/mL (≈ 26.9 µM), an MIC [4] of 14 µg/mL (≈ 26.9 µM) and an MIC [5] of 80 µg/mL (≈ 154 µM). It also gave an MIC [6] of 13 µg/mL (≈ 25 µM), an MIC [7] of 7 µg/mL (≈ 13.5 µM) and an MIC [8] of 11 µg/mL (≈ 21.2 µM). For the same compound, the MIC [9] was 80 µg/mL (≈ 154 µM), the MIC [10] was 1 µg/mL (≈ 1.92 µM) and the MIC [11] was 1 µg/mL (≈ 1.92 µM). For the same compound, the MIC [12] was 0.5 µg/mL (≈ 0.962 µM), the MIC [13] was > 20 µg/mL and the MIC [14] was 0.5 µg/mL (≈ 0.962 µM). For the same compound, the ED50 [1] was < 7.2 mg/kg and the ED50 [2] was < 7.2 mg/kg.
With `CNC(=O)NC(=O)NC(C(=O)NC1C(=O)N2C(C(=O)O)=C(CSc3nnc(C)s3)CSC12)c1ccc(O)cc1` (stereo not drawn) [Test Compound L, Sodium 7-[α-(3-methylcarbamoyl-1-ureido)-α-(4-hydroxyphenyl)acetamido]-3-(5-methyl-1,3,4-thiadiazole-2-ylthiomethyl)3-cephem-4-carboxylate] the MIC [3] was 15.5 µg/mL, the MIC [4] was 16 µg/mL and the MIC [5] was 19.5 µg/mL. For the same compound, the MIC [6] was 6.5 µg/mL, the MIC [7] was 5.5 µg/mL and the MIC [8] was 7.5 µg/mL. For the same compound, the MIC [9] was > 200 µg/mL, the MIC [10] was 7.5 µg/mL and the MIC [11] was 6.5 µg/mL. For the same compound, the MIC [12] was 0.6 µg/mL and the MIC [13] was > 20 µg/mL.
